Results reported in US11986480B2, “Heterocyclic compound” (TOHOKU UNIVERSITY, priority 2017, dated 2024).
Structures can show the parent of a compound that is named as a salt.

These compounds were tested on EmGFP-HaloTag (assay: Test Example 1: HeLa cells stably expressing EmGFP-HaloTag, Western blot GFP/actin (Testing Method A)). Details: 1 uM, 24 hours, 1 or less = degradation promoted.
Format: cell-based
Experimental: Test Example 1: Evaluation Method Using Cell Stably Expressing EmGFP-HaloTag (Testing Method A)
HeLa cells stably expressing EmGFP-HaloTag were inoculated to Dulbecco's Modified Eagle Medium (DMEM) and cultured for 24 hours. Then, a test compound (specifically, compounds of Examples 1 to 7, 9 to 11, 13 to 15, 17 to 20, 24 to 27, 29, 32 to 33, 36 to 42, 44 to 46 and 56) was added thereto at the final concentration shown in Table 2, followed by incubation for 24 hours under conditions of 37° C./5% CO2. The cells were washed with PBS three times and treated with a cell lysis solution containing a proteolytic enzyme inhibitor to obtain a cell extract. The cell extract was subjected to SDS-PAGE. After the electrophoresis, GFP and actin were detected by Western blot. The ratio of the GFP/actin value of the drug-treated cells to the GFP/actin value of a control group in drug-untreated cells was regarded as an activity value. A value of 1 or less represents that degradation of EmGFP-HaloTag was promoted.

Row | Structure (SMILES) | Activity value (GFP/actin of drug-treated cells relative to drug-untreated control)
1 | Nc1nc2c(nc(/C=C/C(=O)NCCOCCOCCOCCOCCOCCCCCCCl)n2Cc2ccc(F)cc2)c(=O)[nH]1 [Example 5, (2E)-3-(2-Amino-9-(4-fluorobenzyl)-6-oxo-6,9-dihydro-1H-purin-8-yl)-N-(21-chloro-3,6,9,12,15-pentaoxahenicos-1-yl)acrylamide] | 0.3
2 | Nc1nc2c(nc(-c3cccc(OCCOCCOCCOCCOCCOCCCCCCCl)c3)n2Cc2ccc(F)cc2)c(=O)[nH]1 [Example 10] | 0.3
3 | CC(=O)N[C@@H](CSc1nc2c(=O)n(C)c(=O)n(C)c2n1Cc1ccc(F)cc1)C(=O)NCCOCCOCCOCCOCCOCCCCCCCl [Example 13, N^2-Acetyl-N-(21-chloro-3,6,9,12,15-pentaoxahenicos-1-yl)-S-(9-(4-fluorobenzyl)-1,3-dimethyl-2,6-dioxo-2,3,6,9-tetrahydro-1H-purin-8-yl)-L-cysteinamide] | 0.1
4 | Nc1nc2c(nc(-c3cnn(CCOCCOCCOCCOCCOCCCCCCCl)c3)n2Cc2ccc(F)cc2)c(=O)[nH]1 [Example 14, 2-amino-8-(1-(21-chloro-3,6,9,12,15-pentaoxahenicos-1-yl)-1H-pyrazol-4-yl)-9-(4-fluorobenzyl)-1,9-dihydro-6H-purin-6-one] | 0.2
5 | Nc1nc2c(nc(-c3cn(CCOCCOCCOCCOCCOCCCCCCCl)nn3)n2Cc2ccc(F)cc2)c(=O)[nH]1 [Example 15, 2-Amino-8-(1-(21-chloro-3,6,9,12,15-pentaoxahenicos-1-yl)-1H-1,2,3-triazol-4-yl)-9-(4-fluorobenzyl)-1,9-dihydro-6H-purin-6-one] | 0.9
6 | CC(=O)N[C@@H](CSc1nc2c(N)ncnc2n1Cc1ccc(F)cc1)C(=O)NCCOCCOCCOCCOCCOCCCCCCCl [Example 17, N^2-Acetyl-S-(6-amino-9-(4-fluorobenzyl)-9H-purin-8-yl)-N-(21-chloro-3,6,9,12,15-pentaoxahenicos-1-yl)-L-cysteinamide trifluoroacetate] | 0.7
7 | CC(=O)N[C@@H](CSc1nc2cncnc2n1Cc1ccc(F)cc1)C(=O)NCCOCCOCCOCCOCCOCCCCCCCl [Example 18, N^2-Acetyl-N-(21-chloro-3,6,9,12,15-pentaoxahenicos-1-yl)-S-(9-(4-fluorobenzyl)-9H-purin-8-yl)-L-cysteinamide] | 0.1
8 | CC(=O)N[C@@H](CSc1nc2c(=O)[nH]c(N)nc2n1Cc1ccccc1Cl)C(=O)NCCOCCOCCOCCOCCOCCCCCCCl [Example 24, N^2-acetyl-S-(2-amino-9-(2-chlorobenzyl)-6-oxo-6,9-dihydro-1H-purin-8-yl)-N-(21-chloro-3,6,9,12,15-pentaoxahenicos-1-yl)-L-cysteinamide] | 0.5
9 | CC(=O)N[C@@H](CSc1nc2c(=O)[nH]c(N)nc2n1Cc1ccc(C)cc1)C(=O)NCCOCCOCCOCCOCCOCCCCCCCl [Example 25, N^2-acetyl-S-(2-amino-9-(4-methylbenzyl)-6-oxo-6,9-dihydro-1H-purin-8-yl)-N-(21-chloro-3,6,9,12,15-pentaoxahenicos-1-yl)-L-cysteinamide] | 0.9
10 | CC(=O)N[C@@H](CSc1nc2c(=O)[nH]cnc2n1Cc1ccc(F)cc1)C(=O)NCCOCCOCCOCCOCCOCCCCCCCl [Example 26, N^2-Acetyl-N-(21-chloro-3,6,9,12,15-pentaoxahenicos-1-yl)-S-(9-(4-fluorobenzyl)-6-oxo-6,9-dihydro-1H-purin-8-yl)-L-cysteinamide] | 0.5
11 | CC(=O)Nc1nc2c(nc(SC[C@H](NC(C)=O)C(=O)NCCOCCOCCOCCOCCOCCCCCCCl)n2Cc2ccc(F)cc2)c(=O)[nH]1 [Example 27, S-(2-Acetamido-9-(4-fluorobenzyl)-6-oxo-6,9-dihydro-1H-purin-8-yl)-N^2-acetyl-N-(21-chloro-3,6,9,12,15-pentaoxahenicos-1-yl)-L-cysteinamide] | 0.7
12 | Nc1nc2c(nc(C(=O)NCCOCCOCCOCCOCCOCCCCCCCl)n2Cc2ccc(F)cc2)c(=O)[nH]1 [Example 33, 2-Amino-N-(21-chloro-3,6,9,12,15-pentaoxahenicos-1-yl)-9-(4-fluorobenzyl)-6-oxo-6,9-dihydro-1H-purine-8-carboxamide] | 0.9

Same assay, conditions: 5 uM, 24 hours, 1 or less = degradation promoted

Row | Structure (SMILES) | Activity value (GFP/actin of drug-treated cells relative to drug-untreated control)
13 | Nc1nc2c(nc(SCC(=O)NCCOCCOCCOCCOCCOCCCCCCCl)n2Cc2ccc(F)cc2)c(=O)[nH]1 [Example 7] | 0.79
14 | Nc1nc2c(nc(NCC(=O)NCCOCCOCCOCCOCCOCCCCCCCl)n2Cc2ccc(F)cc2)c(=O)[nH]1 [Example 9, N^2-(2-amino-9-(4-fluorobenzyl)-6-oxo-6,9-dihydro-1H-purin-8-yl)-N-(21-chloro-3,6,9,12,15-pentaoxahenicos-1-yl)glycinamide] | 0.47

Same assay, conditions: 10 uM, 24 hours, 1 or less = degradation promoted

Row | Structure (SMILES) | Activity value (GFP/actin of drug-treated cells relative to drug-untreated control)
15 | CC(=O)N[C@@H](CSc1nc2c(=O)[nH]c(N)nc2n1Cc1ccc(Cl)cc1)C(=O)NCCOCCOCCOCCOCCOCCCCCCCl [Example 1, N^2-Acetyl-S-(2-amino-9-(4-chlorobenzyl)-6-oxo-6,9-dihydro-1H-purin-8-yl)-N-(21-chloro-3,6,9,12,15-pentaoxahenicos-1-yl)-L-cysteinamide] | 0.7
16 | Nc1nc2c(nc(SCCC(=O)NCCOCCOCCOCCOCCOCCCCCCCl)n2Cc2ccc(F)cc2)c(=O)[nH]1 [Example 2] | 0.9
17 | Nc1nc2c(nc(-c3cccc(C(=O)NCCOCCOCCOCCOCCOCCCCCCCl)c3)n2Cc2ccc(F)cc2)c(=O)[nH]1 [Example 4, 3-(2-amino-9-(4-fluorobenzyl)-6-oxo-6,9-dihydro-1H-purin-8-yl)-N-(21-chloro-3,6,9,12,15-pentnoxahenicos-1-yl)benzamide] | 0.8
18 | Nc1nc2c(nc(CCC(=O)NCCOCCOCCOCCOCCOCCCCCCCl)n2Cc2ccc(F)cc2)c(=O)[nH]1 [Example 6, 3-(2-Amino-9-(4-fluorobenzyl)-6-oxo-6,9-dihydro-1H-purin-8-yl)-N-(21-chloro-3,6,9,12,15-pentaoxahenicos-1-yl)propanamide] | 0.94
19 | Nc1nc2c(nc(-c3ccc(OCCOCCOCCOCCOCCOCCCCCCCl)cc3)n2Cc2ccc(F)cc2)c(=O)[nH]1 [Example 11, 2-amino-8-(4-((21-chloro-3,6,9,12,15-pentaoxahenicos-1-yl)oxy)phenyl)-9-(4-fluorobenzyl)-1,9-dihydro-6H-purin-6-enea] | 0.7
20 | CC(=O)N[C@@H](CSc1c(NCc2ccc(F)cc2)nc(N)[nH]c1=O)C(=O)NCCOCCOCCOCCOCCOCCCCCCCl [Example 19, N^2-Acetyl-S-(2-amino-4-((4-fluorobenzyl)amino)-6-oxo-1,6-dihydropyrimidin-5-yl)-N-(21-chloro-3,6,9,12,15-pentaoxahenicos-1-yl)-L-cysteinamide Trifluoroacetate] | 0.5
21 | CC(=O)N[C@@H](CSc1nc2c(=O)[nH]c(N)nc2n1Cc1ccccc1)C(=O)NCCOCCOCCOCCOCCOCCCCCCCl [Example 20, N^2-Acetyl-S-(2-amino-9-benzyl-6-oxo-6,9-dihydro-1H-purin-8-yl)-N-(21-chloro-3,6,9,12,15-pentaoxahenicos-1-yl)-L-cysteinamide Trifluoroacetate] | 0.2
22 | CC(=O)N[C@@H](CSc1nc2c(=O)[nH]c(N)nc2n1Cc1ccc(C#N)cc1)C(=O)NCCOCCOCCOCCOCCOCCCCCCCl [Example 36, N^2-acetyl-S-(2-amino-9-(4-cyanobenzyl)-6-oxo-6,9-dihydro-1H-purin-8-yl)-N-(21-chloro-3,6,9,12,15-pentaoxahenicos-1-yl)-L-cysteinamide] | 0.9

Same assay, conditions: 100 uM, 24 hours, 1 or less = degradation promoted

Row | Structure (SMILES) | Activity value (GFP/actin of drug-treated cells relative to drug-untreated control)
23 | Nc1nc2c(nc(-c3ccc(C(=O)NCCOCCOCCOCCOCCOCCCCCCCl)cc3)n2Cc2ccc(F)cc2)c(=O)[nH]1 [Example 3, 4-(2-Amino-9-(4-fluorobenzyl)-6-oxo-6,9-dihydro-1H-purin-8-yl)-N-(21-chloro-3,6,9,12,15-pentaoxahenicos-1-yl)benzamide] | 0.3
24 | CC(=O)N[C@@H](CSc1nc2c(=O)[nH]c(N)nc2n1CC1CCOCC1)C(=O)NCCOCCOCCOCCOCCOCCCCCCCl [Example 29, N^2-acetyl-S-(2-amino-6-oxo-9-(tetrahydro-2H-pyran-4-ylmethyl)-6,9-dihydro-1H-purin-8-yl)-N-(21-chloro-3,6,9,12,15-pentaoxahenicos-1-yl)-L-cysteinamide] | 0.5
25 | Nc1nc2c(nc(CNCCOCCOCCOCCOCCOCCCCCCCl)n2Cc2ccc(F)cc2)c(=O)[nH]1 [Example 32, 2-Amino-8-(23-chloro-5,8,11,14,17-pentaoxa-2-azatricos-1-yl)-9-(4-fluorobenzyl)-1,9-dihydro-6H-purin-6-one] | 0.7
